Results published in patent US10160771B2, “Hepatitis C virus inhibitors and uses thereof in preparation of drugs” (priority 2014, dated 2018).
pEC50: −log10 of the molar value.

How the values were obtained:
[1] = Cell Titer-fluor cell activity assay in HCV-1b replicon cells (CC50); assay type: cell-based
Experimental: (§1) The EC50 and CC50 values of anti-HCV compounds were determined by HCV genotype 1a (HCV-1a) and 1B (HCV-1b) stable transfer replication (replicon) cells. The source of genotype 1a replicon is H77 clones containing K1691R, K2040R and S2204I adaptive mutations. The source of genotype 1b replicon is Con1 clones containing E1202G, T1280I and K1846T adaptive mutations.
(§2) HCV Replicon Cell Lines: HCV-1a and HCV-1b Cells
(§3) The compound powder was dissolved in 100% DMSO. Then the compound was diluted 5 times with 6 points, and added into the cell plate with Echo liquid handler. Ensure the final concentration of DMSO was 0.5%. Each compound was tested in double holes. Maximum initial concentration was 100, 10 or 1 nM, 5 times dilution, 6 points.
(§4) b) Cell Culture (HCV-1a or HCV-1b Replicon Cell):
(§5) 1) absorbing the culture supernatant of the cell culture and washing the cells with 10 mL PBS.
(§6) 2) adding preheated pancreatin to the washed cell culture flasks, rotating culture bottle to make the bottom of the culture bottle uniformly covered by pancreatin, then placed into 37° C., 5% CO2 incubator to digest.
(§7) 3) suspending cells in each T150 culture flask with 10-15 mL culture medium, absorbing 0.1 mL liquid and diluting 2 times by trypan blue solution as counted.
(§8) 4) diluting cells to 8×10^4/mL with the culture medium, adding the diluted cells into the compound-containing 96-well plate (Greiner, Cat.#655090) (100 μL/well, 8000 cells/well) with automatic liquid separator (Thermo Scientific). Then place into a 37° C., 5% CO2 incubator for 3 days. Cell control well: no compound, only containing 0.5% DMSO.
5) adding chemiluminescent substrate Cell Titer-fluor to the cell well, after incubation for 30 minutes, detecting the signal by chemiluminescence detection system Envison (Ex at 405 nm and read at 515 nm). The effect of the compounds on the activity of HCV replicon cells was analyzed according to the luminescence data, which was used to calculate the CC50 values.
(§9) The EC50 or CC50 values were obtained by nonlinear fitting analysis on inhibition percentage (inh %) data with GraphPad Prism software.

[2] = test system: HCV genotype 1b (HCV-1b) replicon cells; experiment: HCV genotype 1b replicon luciferase assay (EC50); assay type: cell-based, hepatitis C virus genotype 1b (Con1 clone); details: 3 days, luciferase (Bright-Glo)
Experimental: as §1
(§10) HCV 1a (HCV-1a) and 1b (HCV-1b) gene subtype replicon system contains the related HCV gene subtype non structural protein gene, G418 resistance gene NEO and luciferase gene, which results in that HCV related protein and luciferase can be stably expressed in cells. By detecting the level of expression of luciferase gene, the level of HCV replication can be determined. Therefore, the system is used as a model for screening the activity of anti-HCV compound in vitro.
as §2, §3, §4, §5, §6, §7, §8
(§11) 6) then adding luciferase luminescence substrate Bright-Glo, after incubation for 5 minutes, detecting the luciferase activity by chemical luminescence detection system Envison (wavelength>700 nm); analyzing the anti-HCV inhibitory activity of the compounds according to luciferase data, which was used to calculate EC50 values.
as §9

[3] = test system: HCV genotype 1a (HCV-1a) replicon cells; experiment: HCV genotype 1a replicon luciferase assay (EC50); assay type: cell-based, hepatitis C virus genotype 1a (H77 clone); details: 3 days, luciferase (Bright-Glo)
Experimental: as §1, §10, §2, §3, §4, §5, §6, §7, §8, §11, §9

Row | SMILES | CC50 at 3 days [1] [nM] | pEC50 ([2]; Hepatitis C virus, 72 h) | pEC50 ([3]; Hepatitis C virus, 72 h) | pEC50 [3] | pEC50 [2]
1 | COC(=O)N[C@H](C(=O)N1CCC[C@H]1c1ncc(-c2ccc(-c3ccc(-c4cnc(C5=C(C(=O)N(NC(=O)OC)C(C)C)CCC5)[nH]4)cc3)cc2)[nH]1)C(C)C [AA_007] | > 100 | 8.00 to 9.00 | – | – | –
2 | COC(=O)N[C@H](C(=O)N1CCC[C@H]1c1ncc(-c2ccc(-c3ccc(-c4cnc(C5CCCC5C(=O)N(NC(=O)OC)C(C)C)[nH]4)cc3)cc2)[nH]1)C(C)C (some centres unmarked) [AA_008] | > 100 | 8.00 to 9.00 | – | – | –
3 | COC(=O)N[C@H](C(=O)N1CCC[C@H]1c1ncc(-c2ccc(-c3ccc(-c4cnc(C5=C(C(=O)N(NC(=O)OC)C(C)C)CCCC5)[nH]4)cc3)cc2)[nH]1)C(C)C [AA_014] | > 100 | 8.00 to 9.00 | – | – | –
4 | COC(=O)N[C@H](C(=O)N1CCC[C@H]1c1ncc(-c2ccc(-c3ccc(-c4cnc(C5CCC[C@H]5C(=O)NC(C)C)[nH]4)cc3)cc2)[nH]1)C(C)C (some centres unmarked) [AA_028] | > 100 | 8.00 to 9.00 | – | – | –
5 | COC(=O)N[C@H](C(=O)N1CCC[C@H]1c1ncc(-c2ccc(-c3ccc4cc(-c5cnc(C6CCCC[C@H]6C(=O)N(NC(=O)OC)C(C)C)[nH]5)ccc4c3)cc2)[nH]1)C(C)C (some centres unmarked) [AA_071] | > 10 | 8.00 to 9.00 | – | – | –
6 | COC(=O)N[C@H](C(=O)N1CCC[C@H]1c1ncc(-c2ccc(-c3ccc(-c4cnc([C@@H]5[C@H]6CC[C@H](C6)[C@H]5C(=O)N[C@H](C)c5cccnc5F)[nH]4)cc3)cc2)[nH]1)C(C)C [AA_283_ENDOA2_A] | – | 10.00 to 12.00 | 8.00 to 9.00 | – | –
7 | COC(=O)N[C@H](C(=O)N1CCC[C@H]1c1ncc(-c2ccc(-c3ccc(-c4cnc([C@@H]5[C@H]6CC[C@H](C6)[C@H]5C(=O)N[C@@H](C)c5cccnc5F)[nH]4)cc3)cc2)[nH]1)C(C)C [AA_283_ENDOA2_B] | – | 10.00 to 12.00 | 10.00 to 12.00 | – | –
8 | COC(=O)N[C@H](C(=O)N1CCC[C@H]1c1ncc(-c2ccc(-c3ccc(-c4cnc([C@@H]5[C@H]6CC[C@H](C6)[C@H]5C(N)=O)[nH]4)cc3)cc2)[nH]1)C(C)C [AA_284_ENDOA2] | – | 10.00 to 12.00 | 7.00 to 8.00 | – | –
9 | COC(=O)N[C@H](C(=O)N1CCC[C@H]1c1ncc(-c2ccc(-c3ccc(-c4cnc([C@@H]5[C@H]6CC[C@H](C6)[C@H]5C(=O)N(Cc5cccnc5)C(C)C)[nH]4)cc3)cc2)[nH]1)C(C)C [AA_285_ENDOA2] | – | 10.00 to 12.00 | 8.00 to 9.00 | – | –
10 | COC(=O)N[C@H](C(=O)N[C@H]1C2CCC(C2)C1c1ncc(-c2ccc(-c3ccc(-c4cnc([C@@H]5CCCN5C(=O)[C@@H](NC(=O)OC)C(C)C)[nH]4)cc3)cc2)[nH]1)C(C)C (some centres unmarked) [AA_286] | – | 10.00 to 12.00 | 7.00 to 8.00 | – | –
11 | COC(=O)N[C@H](C(=O)N1CCC[C@H]1c1ncc(-c2ccc(-c3ccc(-c4cnc([C@@H]5[C@H]6CC[C@H](C6)[C@H]5C(=O)NCc5cncc(F)c5)[nH]4)cc3)cc2)[nH]1)C(C)C [AA_287_ENDOA2] | – | 10.00 to 12.00 | 9.00 to 10.00 | – | –
12 | COC(=O)N[C@H](C(=O)N1CCC[C@H]1c1ncc(-c2ccc(-c3ccc(-c4cnc([C@@H]5[C@H]6CC[C@H](C6)[C@H]5C(=O)NCc5nccn5C)[nH]4)cc3)cc2)[nH]1)C(C)C [AA_288_ENDOA2] | – | 10.00 to 12.00 | 8.00 to 9.00 | – | –
13 | COC(=O)N[C@H](C(=O)N1CCC[C@H]1c1ncc(-c2ccc(-c3ccc(-c4cnc([C@@H]5[C@H]6CC[C@H](C6)[C@H]5C(=O)NNC(C)=O)[nH]4)cc3)cc2)[nH]1)C(C)C [AA_289_ENDOA2] | – | 9.00 to 10.00 | 7.00 to 8.00 | – | –
14 | COC(=O)CNC(=O)[C@H](NC(=O)[C@@H]1[C@@H]2CC[C@@H](C2)[C@H]1c1ncc(-c2ccc(-c3ccc(-c4cnc([C@@H]5CCCN5C(=O)[C@@H](NC(=O)OC)C(C)C)[nH]4)cc3)cc2)[nH]1)C(C)C [AA_290_ENDOA2] | – | 9.00 to 10.00 | 7.00 to 8.00 | – | –
15 | COC(=O)N[C@H](C(=O)N1CCC[C@H]1c1ncc(-c2ccc(-c3ccc(-c4cnc([C@@H]5[C@H]6CC[C@H](C6)[C@H]5C(=O)NCc5ncc(C)[nH]5)[nH]4)cc3)cc2)[nH]1)C(C)C [AA_291_ENDOA2] | – | 10.00 to 12.00 | 8.00 to 9.00 | – | –
16 | COC(=O)N[C@H](C(=O)N1CCC[C@H]1c1ncc(-c2ccc(-c3ccc(-c4cnc([C@@H]5[C@H]6CC[C@H](C6)[C@H]5C(=O)NC(C)c5cncnc5)[nH]4)cc3)cc2)[nH]1)C(C)C (some centres unmarked) [AA_292_ENDOA2_M] | – | 9.00 to 10.00 | 8.00 to 9.00 | – | –
17 | COC(=O)N[C@H](C(=O)N1CCC[C@H]1c1ncc(-c2ccc(-c3ccc(-c4cnc([C@@H]5[C@H]6CC[C@H](C6)[C@H]5C(=O)N[C@@H](C(=O)c5ccccc5)C(C)C)[nH]4)cc3)cc2)[nH]1)C(C)C [AA_293_ENDOA2] | – | 10.00 to 12.00 | 8.00 to 9.00 | – | –
18 | COC(=O)N[C@H](C(=O)N1CCC[C@H]1c1ncc(-c2ccc(-c3ccc(-c4cnc([C@@H]5[C@H]6CC[C@H](C6)[C@H]5C(=O)NN5CCCC5=O)[nH]4)cc3)cc2)[nH]1)C(C)C [AA_294_ENDOA2] | – | 10.00 to 12.00 | 7.00 to 8.00 | – | –
19 | COC(=O)N[C@H](C(=O)N1CCC[C@H]1c1ncc(-c2ccc(-c3ccc(-c4cnc([C@@H]5[C@H]6CC[C@H](C6)[C@H]5C(=O)NN5CC[C@@H](C)C5=O)[nH]4)cc3)cc2)[nH]1)C(C)C [AA_295_ENDOA2_A] | – | 9.00 to 10.00 | 7.00 to 8.00 | – | –
20 | COC(=O)N[C@H](C(=O)N1CCC[C@H]1c1ncc(-c2ccc(-c3ccc(-c4cnc([C@@H]5[C@H]6CC[C@H](C6)[C@H]5C(=O)NN5CC[C@H](C)C5=O)[nH]4)cc3)cc2)[nH]1)C(C)C [AA_295_ENDOA2_B] | – | 9.00 to 10.00 | 7.00 to 8.00 | – | –
21 | COC(=O)N[C@H](C(=O)N1CCC[C@H]1c1ncc(-c2ccc(-c3ccc(-c4cnc([C@@H]5[C@H]6CC[C@H](C6)[C@H]5C(=O)N[C@H](C(=O)NCc5cccnc5)C(C)C)[nH]4)cc3)cc2)[nH]1)C(C)C [AA_296_ENDOA2] | – | 9.00 to 10.00 | 8.00 to 9.00 | – | –
22 | CCOC(=O)[C@@H](NC(=O)[C@@H]1[C@@H]2CC[C@@H](C2)[C@H]1c1ncc(-c2ccc(-c3ccc(-c4cnc([C@@H]5CCCN5C(=O)[C@@H](NC(=O)OC)C(C)C)[nH]4)cc3)cc2)[nH]1)C(C)C [AA_297_ENDOA2] | – | 9.00 to 10.00 | 7.00 to 8.00 | – | –
23 | COC(=O)N[C@H](C(=O)N1CCC[C@H]1c1cc(Cl)c(-c2ccc(-c3ccc(-c4cnc([C@@H]5CCCN5C(=O)[C@@H](NC(=O)OC)[C@@H](C)OC)[nH]4)cc3)cc2)[nH]1)[C@@H](C)OC [AG_095] | – | 10.00 to 12.00 | 9.00 to 10.00 | – | –
24 | COC(=O)N[C@H](C(=O)N1CCC[C@H]1c1ncc(-c2ccc(-c3ccc(-c4ccc(C5CCCC5C(=O)NCc5cccnc5)[nH]4)cc3)cc2)[nH]1)[C@@H](C)OC (some centres unmarked) [AG_096] | – | 10.00 to 12.00 | 7.00 to 8.00 | – | –
25 | COC(=O)N[C@H](C(=O)N1CCC[C@H]1c1ccc(-c2ccc(-c3ccc(-c4cnc([C@@H]5CCCN5C(=O)C5(NC(=O)OC)CC5)[nH]4)cc3)cc2)[nH]1)C(C)C [AG_097] | – | – | – | 7.00 to 8.00 | 10.00 to 12.00
26 | COC(=O)N[C@@H](COC(C)(C)C)C(=O)N1CCC[C@H]1c1ncc(-c2ccc(-c3ccc(-c4ccc([C@@H]5CCCN5C(=O)[C@@H](NC(=O)OC)C(C)C)[nH]4)cc3)cc2)[nH]1 [AG_098] | – | 10.00 to 12.00 | 8.00 to 9.00 | – | –
27 | COC(=O)N[C@H](C(=O)N1CCC[C@H]1c1ccc(-c2ccc(-c3ccc(-c4cnc([C@@H]5CCCN5C(=O)[C@@H](NC(=O)OC)[C@@H](C)O)[nH]4)cc3)cc2)[nH]1)C(C)C [AG_099] | – | 9.00 to 10.00 | 8.00 to 9.00 | – | –
28 | COC(=O)N[C@H](C(=O)N1CCC[C@H]1c1ncc(-c2ccc(-c3ccc(-c4[nH]c([C@@H]5CCCN5C(=O)[C@@H](NC(=O)OC)C(C)C)c5c4OCC5)cc3)cc2)[nH]1)C(C)C [AG_114_A] | – | – | – | 7.00 to 8.00 | 9.00 to 10.00
